Measured values from US20150231209A1, “STIMULATION OF OVARIAN FOLLICLE DEVELOPMENT AND OOCYTE MATURATION” (THE BOARD OF TRUSTEES OF THE LELAND STANFORD JUNIOR …, priority 2012, published 2015).

What was measured:
PTP = conditions: read-out: IC50, PTP inhibitor; cited from earlier work
F-actin/G-actin = experiment: F-actin and G-actin content of ovaries after JASP; type: cell-based; conditions: 10 μM for 30 min., ovaries from day 10 mice
Protocol: (§1) Left upper panel: Paired ovaries from day 10 mice were treated with or without JASP (10 μM) for 30 min. before analyses of F- and G-actin content. Left lower panel: Real-time RT-PCR analyses of CCN2 transcript levels after 30 min. exposure to JASP. Right panel: Immunoblotting analyses of CCN2 protein levels after 30 min. treatment with JASP. Upper panel: Immunoblotting analyses. Lower panel: quantitative analyses of densitometric scanning data. Numbers in parentheses are number of samples used. * p<0.05. […] Ovaries from day 10 mice were treated with or without different concentrations of JASP for 30 min. before grafting into adult hosts treated daily with FSH. Five days later, graft weights were determined.
Paired ovaries from CD-1 mice at different ages were excised in L-15 medium. One ovary from each animal was cut into 2-4 pieces, whereas the contralateral one remained intact. Ovaries were transferred to culture plate inserts (Millipore, Bedford, Mass.) and cultured in MEMa medium with 3 mg/ml BSA, 0.23 mM sodium pyruvate, 50 ug/ml vitamin C, 30 mIU/ml FSH, 50 mg/L streptomycin sulfate, and 75 mg/L penicillin G. After 30 min. of incubation, media were replaced and incubated for another 30 min. […]
Ratios of F-actin to G-actin in intact and fragmented ovaries were determined by F-actin/G-actin in vivo assay kit (Cytoskeleton, Denver, Colo.). […]

CCN2 = CCN2 transcript and protein levels of ovaries after JASP; type: cell-based; conditions: 30 min. exposure, ovaries from day 10 mice
Protocol: as §1
Paired ovaries from CD-1 mice at different ages were excised in L-15 medium. One ovary from each animal was cut into 2-4 pieces, whereas the contralateral one remained intact. […]
Proteins from NIH3T3 cells or ovaries of mice at day 10 of age were extracted using M-PER Mammalian Protein Extraction Reagent (Thermo, Rockford, Ill.) containing a protease inhibitor cocktail (Thermo). […] Signals were developed using enhanced chemiluminescence (ECL Kit, GE Healthcare) and quantitated using a densitometer. […]

ovarian grafts = experiment: Ovarian grafting under kidney capsule of FSH-treated hosts: graft weights and follicle counting; type: in vivo, mice; conditions: ovaries treated 30 min. with different concentrations, grafted 5 days, hosts treated daily with FSH
Protocol: FIG. 3. Additive effects of Hippo signaling disruption and Akt stimulation promoted secondary follicle growth. A) Secondary follicles are responsive to IVA treatment. Secondary follicles (115 um in diameter) were isolated from mice at day 10 of age and cultured in vitro with the standard IVA protocol (first day with bPV(hopic) at 3 mM and 740YP at 15 ug/ml, followed by one more day with 740YP alone), followed by treatment with daily FSH (100 ng/ml) for two more days (IVA+FSH). The control groups were either treatment with media alone for four days or treated with the IVA reagent for two days followed by media alone (IVA alone). B) Ovarian fragmentation and IVA treatment led to additive effects on ovarian weight gain and secondary follicle growth. Paired ovaries from mice at day 10 of age were fragmented into three pieces. Fragments from one side were treated with the IVA protocol (bpV(hopic) at 30 uM and 740YP at 150 ng/ml for one day, followed by one more day with 740YP only) whereas fragments from the contralateral side were incubated in media alone. Ovarian fragments were then allo-transplanted into kidney capsules of adult ovariectomized mice with hosts injected with FSH (daily at 1 IU/animal). Five 5 days later, ovarian grafts were retrieved, fixed and weighted. Left panel: graft weights; right panel: Follicle dynamics of grafted ovarian fragments. Percentages of follicles at different stages were determined based on serial sections of grafts. C, Follicle dynamics before and after grafting of intact and fragmented murine ovaries with or without treatment with Akt stimulators. Left: total follicle numbers, Right: follicle dynamics. n=4. Same letter symbols indicate significant differences (p<0.05). D-F. Vitrified human cortical strips were thawed and fragmented into cubes before treatment with Akt stimulators for 2 days followed by grafting into immune-deficient mice for 4 weeks. D. Cortical strips before grafting. Arrow: a secondary follicle, arrowheads: primordial/primary follicles. Scale bar, 100 μm. E. A kidney graft in situ (left) and after isolation (right), showing an antral follicle. F. Histology of two large antral follicles with the side view of one showing an oocyte at the germinal vesicle stage (arrow). Scale bar, 1 mm. Mean±SEM; * p<0.05.
FIG. 7. Pre-treatment with verteporfin and CCN2 antibodies suppressed fragmentation-induced ovarian growth. A, Pretreatment with verteporfin suppressed fragmentation-induced increases in CCN2, but not AMH, transcript levels. Juvenile mice were injected i.p. with verteporfin for 3 h before retrieving ovaries for fragmentation. At 4 h after incubation, transcript levels for CCN2 and AMH were determined by real-time RT-PCR. n=6-12. […] Ovaries from juvenile mice pre-injected with verteporf in for 3 h were fragmented and incubated for 1 h before grafting into FSH-treated hosts for 5 days followed by determination of graft weights. Numbers in parentheses are number of samples used. C, Follicle dynamics of intact and fragmented ovarian grafts from animals with or without verteporf in (VP) pretreatment. n=3-5. D, Incubation of fragmented ovaries with CCN2 antibodies suppressed ovarian weight increases. Paired ovaries were fragmented into 3 pieces followed by incubation with CCN2 antibodies or non-immune-IgG for 18 h before grafting for 5 days. Mean±SEM; *p<0.05.
Left upper panel: Paired ovaries from day 10 mice were treated with or without JASP (10 μM) for 30 min. before analyses of F- and G-actin content. Left lower panel: Real-time RT-PCR analyses of CCN2 transcript levels after 30 min. exposure to JASP. Right panel: Immunoblotting analyses of CCN2 protein levels after 30 min. treatment with JASP. Upper panel: Immunoblotting analyses. Lower panel: quantitative analyses of densitometric scanning data. Numbers in parentheses are number of samples used. * p<0.05. […]

Row | Compound | IC50 (PTP) [µM] | actin polymerization (F- and G-actin content) (F-actin/G-actin) | CCN2 expression (transcript and protein) (CCN2) | weights of ovarian grafts (ovarian grafts)
1 | monoperoxo(picolinato)oxovanadate(V) | 18 | – | – | –
2 | C/C1=C\[C@H](C)C[C@H](C)OC(=O)C[C@H](c2ccc(O)cc2)NC(=O)[C@@H](Cc2c(Br)[nH]c3ccccc23)N(C)C(=O)[C@H](C)NC(=O)[C@@H](C)C1 [JASP, jasplakinolide] | – | increased actin polymerization | increased | increased weights of ovarian grafts
